Like-named read-outs stand apart in the source and are kept apart here.

Data set [1] can be described thus: In vivo nasal, oral and intravenous delivery of oxybutynin in rats; plasma levels by HPLC. The settings on record: rat; for bioavailability: read-out: Bioavailability relative to intravenous administration (100%). How it is done: The nasal absorption of oxybutynin was studied using an in vivo technique described previously (1). Male Sprague-Dawley rats (body weight 250±25 gm) were used in these studies. Animals were fasted overnight prior to experimentation. Surgical procedures were performed under equithesin anesthesia (3 ml/kg, i.p.). An incision was made in the neck, and the trachea cannulated with polyethylene tubing (PE-260). A closed end tube was inserted through the esophagus to the posterior part of the nasal cavity to prevent drug from entering the esophagus. The nasopalatine passage was then closed with an adhesive agent to prevent drainage of the drug from the nasal cavity to the mouth.
Blood samples were collected from a cannula inserted into the femoral artery. For intravenous drug administration, the jugular vein was cannulated.
Solutions of oxybutynin hydrochloride (5 mg/kg/100 μl) were prepared in normal saline and administered through the right nostril using a microsyringe. For oral administration, rats received an aqueous solution of oxybutynin hydrochloride (5 mg/kg) administered by gavage tube. For intravenous (i.v.) administration, the same dose of oxybutynin was injected into the jugular vein (1 ml/kg body weight). Blood samples after oxybutynin administration were collected before and at […] after drug administration, centrifuged, and serum removed and stored (−70° C.) until analysis.
Differences in the plasma oxybutynin or N-desethyloxybutynin concentrations between i.v., oral, and nasal delivery routes were compared using the Student's t test.
Analysis of oxybutynin and its metabolites N-desethyloxybutynin were performed using HPLC as described by Buyse et al. (2). Extraction of standards for calibration curve and plasma samples were performed as described previously by Hughes et al. (3).
Oxybutynin and its metabolite (N-desethyloxybutynin) were analyzed using a reverse-phase column (25 cm×[…] I.D.) and eluted with mobile phase consisting of 50% acetonitrile in […] potassium phosphate buffer, pH 6.3. The mixture was filtered and degassed prior to use. The flow rate was 0.7 ml/min, and the effluent was monitored with a dual UV detector system at 210 nm.
All determinations were performed by calculating the area ratios of each compound to the internal standard. Unknown amounts were determined from calibration curves run with each day's unknown analysis.

For data set [2] the following is noted: oral administration (Douchamps et al.); cited from earlier work.
Data set [3] is described as follows: In vivo nasal, oral and intravenous delivery of oxybutynin in rats; plasma levels by HPLC. Particulars: male, Sprague-Dawley, rat, mean ± SEM, read-out: AUC0-2 h.
The conditions of data set [4]: cited from earlier work.

In data set [1] (intranasal oxybutynin 5 mg/kg), `CCNCC#CCOC(=O)C(O)(c1ccccc1)C1CCCCC1` (stereo not drawn) [N-desethyloxybutynin] yielded a tmax of 96 min. For the same compound, in data set [1] (intranasal oxybutynin 5 mg/kg, mean ± SEM, 4 rats), the “Ratio N-desethyloxybutynin/Oxybutynin” value is on record as ~0.55. For the same compound, in data set [1] (oral oxybutynin 5 mg/kg), the “Plasma concentration of N-desethyloxybutynin relative to parent compound oxybutynin” value is given as “approximately 12 fold” and the tmax was determined as 66 min.
Consider `CCN(CC)CC#CCOC(=O)C(O)(c1ccccc1)C1CCCCC1` (stereo not drawn) [oxybutynin, Benzeneacetic acid, a-cyclohexyl-a-hydroxy-4-(diethylamino)-2-butynyl ester], for which the Systemic bioavailability in data set [2] is < 6%. The bioavailability in data set [1] (male, Sprague-Dawley, plasma, other: intranasal, intranasal 5 mg/kg) is 90%; in data set [1] (male, Sprague-Dawley, plasma, oral 5 mg/kg), ~9%. Moreover, the tmax was 10 min in data set [1] (male, Sprague-Dawley, plasma, inhaled or intranasal, 5 mg/kg, intranasal oxybutynin 5 mg/kg, read-out: tmax (converted)); 30 to 40 min in data set [1] (male, Sprague-Dawley, plasma, po, 5 mg/kg, oral oxybutynin 5 mg/kg (solution in water), read-out: tmax (converted)); 40 min in data set [1] (oral oxybutynin 5 mg/kg (solution in water)). Also, in data set [1] (5 mg/kg), the “Increase in bioavailability after intranasal compared to oral administration” value is ~10 fold. For the same compound, the AUC(0-t) turned out to be 1770 ± 190 ng·h/mL in data set [3] (inhaled or intranasal, intranasal oxybutynin 5 mg/kg) and 180 ± 53 ng·h/mL in data set [3] (oral oxybutynin 5 mg/kg). For the same compound, the Patient withdrawal result in data set [4] (intravesical oxybutynin therapy, several studies) is given as “up to 65%”. Moreover, the “Patients with adverse reactions requiring discontinuance of therapy” value in data set [4] (oral 5 mg 3 times daily, clinical studies) is given as “about 20%”.

These data come from US6545046B2, “Method for enhanced delivery of oxybutynin and compositions thereof” (Theramax Inc., priority 2000, dated 2003).
